Experimental findings from patent US8247612B2, “Organic sulfur compound and its use for controlling harmful arthropod” (Sumitomo Chemical Company, Limited, priority 2007, dated 2012) are described below.

Common to all, as to assay type: in vivo
In one assay the test system is Musca domestica. The assay is described as follows: Test Example 2: treated filter paper with sucrose bait, death rate of Musca domestica. Particulars: 500 ppm test solution, 0.7 ml on filter paper, 10 female imagoes, after 24 hours. The protocol: Preparations of the present compounds (2), (3), (5), (6), (9), (10), (11), (12), (13), (14), (15), (16), (17), (19), (20), (24), (25), (26), (28), (29), (30) and (31) obtained according to Formulation Example 36 were diluted so that the active ingredient concentration was 500 ppm to obtain test solutions.
A filter paper having a diameter of 5.5 cm was spread on the bottom of a polyethylene cup having a diameter of 5.5 cm and 0.7 ml of the test solution was added dropwise onto the filter paper. As a bait 30 mg of sucrose was uniformly placed on the filter paper. Into the polyethylene cup, 10 female imagoes of Musca domestica were released and the cup was sealed with a lid. After 24 hours, the number of surviving Musca domestica was examined and the death rate of the pest was calculated.
As a result, in treatments with the present compounds (2), (3), (5), (6), (9), (10), (11), (12), (13), (14), (15), (16), (17), (19), (20), (24), (25), (26), (28), (29), (30) and (31), the death rate of the pest was 70% or more.

Assay [1] has as its system Haemaphysalis longicornis. The assay is described as follows: Test Example 5: treated filter paper pouch, death rate of ticks. Conditions: filter paper treated with 100 mg/m^2; non-blood-sucking nymphal ticks, 10 ticks/group; after 2 days. The protocol:
Five milligrams of any one of the present compounds (3), (10), (14), (15), (16) and (17) was dissolved in 10 mL of acetone. One milliliter of the acetone solution was uniformly applied on one side of a filter paper (TOYO No. 2; 5×10 cm), so that the filter paper was treated with 100 mg/m^2 of the present compound. After drying, the filter paper was folded in two and its edges were clipped to make a pouch. Non-blood-sucking nymphal ticks (Haemaphysalis longicornis, 10 ticks/group) were put into the pouch, and the pouch was sealed with clips. After 2 days, the number of surviving ticks was examined and the death rate was calculated. As a result, in treatments with the present compounds (3), (10), (14), (15), (16) and (17), the death rate of the tick was 90%.

The next assay concerns Culex pipiens pallens. The assay is described as follows: Test Example 4: larvae in treated water, death rate of Culex pipiens pallens. Conditions: 24 h, active ingredient concentration 3.5 ppm in water, 20 last-instar larvae, after one day. The protocol: Preparations of the present compounds (1), (2), (3), (4), (5), (6), (9), (10), (11), (12), (14), (15), (16), (17), (19), (20), (22), (23), (24), (26), (27), (28), (29), (30) and (31) obtained according to Formulation Example 36 were diluted so that the active ingredient concentration was 500 ppm to obtain test solutions. To 100 mL of ion-exchanged water, 0.7 ml of the test solution was added (active ingredient concentration: 3.5 ppm). Into the solution, 20 last-instar larvae of Culex pipiens pallens were released. After one day, the number of surviving Culex pipiens pallens was examined and the death rate of the pest was calculated. As a result, in treatments with the present compounds (1), (2), (3), (4), (5), (6), (9), (10), (11), (12), (14), (15), (16), (17), (19), (20), (22), (23), (24), (26), (27), (28), (29), (30) and (31), the death rate of the pest was 90% or more.

A further assay deals with Blattalla germanica. In words: Test Example 3: treated filter paper with sucrose bait, death rate of Blattalla germanica. Particulars: 144 h; 500 ppm test solution, 0.7 ml on filter paper; 2 male imagoes; after 6 days. The protocol:
Preparations of the present compounds (2), (3), (5), (6), (10), (11), (12), (14), (15), (16), (17), (19), (20), (24), (25), (26), (29), (30) and (31) obtained according to Formulation Example 36 were diluted so that the active ingredient concentration was 500 ppm to obtain test solutions.
A filter paper having a diameter of 5.5 cm was spread on the bottom of a polyethylene cup having a diameter of 5.5 cm and 0.7 ml of the test solution was added dropwise onto the filter paper. As a bait 30 mg of sucrose was uniformly placed on the filter paper. Into the polyethylene cup, 2 male imagoes of Blattalla germanica were released and the cup was sealed with a lid. After 6 days, the number of surviving Blattalla germanica was examined and the death rate of the pest was calculated.
As a result, in treatments with the present compounds (2), (3), (5), (6), (10), (11), (12), (14), (15), (16), (17), (19), (20), (24), (25), (26), (29), (30) and (31), the death rate of the pest was 100%.

Bounds are passed on as bounds.

As to `CC(CCC(Cl)(C(N)=O)S(=O)(=O)CCC(F)(F)F)C(F)(F)F` (stereo not drawn) [present compound (3), 2-chloro-6,6,6-trifluoro-5-methyl-2-(3,3,3-trifluoropropylsulfonyl)hexanamide], the pest or weed control at 500 ppm in the assay on Musca domestica was not below 70%; with Blattalla germanica, 100%. The “death rate of the tick” value in assay [1] is on record as 90%. In the assay on Culex pipiens pallens, this compound had a pest or weed control at 3.5 ppm not below 90%.

Consider `CC(CCC(C#N)S(=O)(=O)CCC(F)(F)F)C(F)(F)F` (stereo not drawn) [present compound (10), 6,6,6-trifluoro-5-methyl-2-(3,3,3-trifluoropropylsulfonyl)hexanenitrile], for which the figures for the pest or weed control at 500 ppm in the assay on Musca domestica and in the assay with Blattalla germanica were not below 70% and 100%, respectively. Also, the “death rate of the tick” value in assay [1] worked out at 90%. Also, the pest or weed control at 3.5 ppm with Culex pipiens pallens is not below 90%.

Consider `CCC(CCC(C#N)S(=O)(=O)CCC(F)(F)F)C(F)(F)F` (stereo not drawn) [present compound (14), 5-(trifluoromethyl)-2-(3,3,3-trifluoropropylsulfonyl)heptanenitrile], for which the pest or weed control at 500 ppm is not below 70% with Musca domestica and 100% in the assay with Blattalla germanica. Also, in assay [1], the “death rate of the tick” value is listed as 90%. The compound also registered a pest or weed control at 3.5 ppm with Culex pipiens pallens not below 90%.

In the case of `CCC(CCC(F)(C#N)S(=O)(=O)CCC(F)(F)F)C(F)(F)F` (stereo not drawn) [present compound (15), 2-fluoro-5-(trifluoromethyl)-2-(3,3,3-trifluoropropylsulfonyl)heptanenitrile], the pest or weed control at 500 ppm is not below 70% in the assay with Musca domestica and 100% with Blattalla germanica. Further, the “death rate of the tick” value in assay [1] stood at 90%. This compound returned a pest or weed control at 3.5 ppm in the assay on Culex pipiens pallens not below 90%.

On to `CCC(CCC(Cl)(C#N)S(=O)(=O)CCC(F)(F)F)C(F)(F)F` (stereo not drawn) [present compound (16), 2-chloro-5-(trifluoromethyl)-2-(3,3,3-trifluoropropylsulfonyl)heptanenitrile], for which the pest or weed control at 500 ppm was not below 70% in the assay on Musca domestica and 100% in the assay with Blattalla germanica. In addition, the “death rate of the tick” value in assay [1] is on record as 90%. In the assay with Culex pipiens pallens, this compound came in with a pest or weed control at 3.5 ppm not below 90%.

Take `CCC(CCC(C)(C#N)S(=O)(=O)CCC(F)(F)F)C(F)(F)F` (stereo not drawn) [present compound (17), 2-methyl-5-(trifluoromethyl)-2-(3,3,3-trifluoropropylsulfonyl)heptanenitrile]: the results for the pest or weed control at 500 ppm in the assay on Musca domestica and with Blattalla germanica were not below 70% and 100%, respectively. Also, the “death rate of the tick” value in assay [1] came to 90%. The compound also showed a pest or weed control at 3.5 ppm in the assay with Culex pipiens pallens not below 90%.

What is called pest or weed control is how far the test organism was held down. A higher pest or weed control goes with a strong effect.
